What was measured:
CYP82X1 = target: T1, CYP82X1 (Papaver somniferum, UniProt I3V6B7); assay: In vitro enzyme assay with yeast microsomal fractions containing CYP82X1 (CPR/82X1); format: biochemical; details: yeast microsomes (CPR/82X1), extracted ion chromatograms, FIG. 13
T1 construct: The full-length coding region of CYP82X1 was amplified using cDNA derived from total stem RNA of the Bea's Choice chemotype; FLAG; made in house; host or cells: Saccharomyces cerevisiae YPL 154C:Pep4, microsomal fraction
T1 sequence (I3V6B7 1-540): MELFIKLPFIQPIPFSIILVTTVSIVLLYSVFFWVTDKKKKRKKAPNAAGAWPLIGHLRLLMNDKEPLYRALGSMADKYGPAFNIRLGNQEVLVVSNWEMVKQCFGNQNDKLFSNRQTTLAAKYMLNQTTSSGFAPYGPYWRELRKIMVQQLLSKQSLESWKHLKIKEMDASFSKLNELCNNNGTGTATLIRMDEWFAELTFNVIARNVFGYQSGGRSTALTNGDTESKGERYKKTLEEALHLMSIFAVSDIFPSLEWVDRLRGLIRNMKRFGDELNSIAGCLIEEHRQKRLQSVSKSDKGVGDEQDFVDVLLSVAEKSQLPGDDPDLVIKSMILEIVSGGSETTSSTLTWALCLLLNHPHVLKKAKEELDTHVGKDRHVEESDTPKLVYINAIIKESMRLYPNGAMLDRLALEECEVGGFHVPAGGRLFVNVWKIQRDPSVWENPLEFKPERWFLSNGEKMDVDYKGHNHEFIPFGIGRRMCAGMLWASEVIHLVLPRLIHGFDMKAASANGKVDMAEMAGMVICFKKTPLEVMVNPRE
Excerpt: (§1) The full-length coding region of CYP82X1 was amplified using cDNA derived from total stem RNA of the Bea's Choice chemotype using Takara Ex Taq DNA polymerase (Fisher Scientific, Ottawa, Canada), and using a primer 5′-[…]-3′ (SEQ ID NO: 607) and reverse primer 5′-[…]-3′ (SEQ ID NO: 608). Owing to problems with heterologous expression in yeast, CYP82X2 was synthesized with the first 60 N-terminal amino acids replaced with the first 43 N-terminal amino acids from the lettuce cytochrome P450 germacrene A oxidase Nguyen, D. T. et al. J. Biol. Chem. 285, 16588-16598 (2010). For heterologous expression of Flag-tagged CYPs in yeast (Saccharomyces cerevisiae), the full-length coding regions of CYP82X1 and CYP82X2 were inserted into the NotI and SpeI restriction sites of the dual plasmid pESC-leu2d::CPR Ro, D.-K., Ouellet, M., Paradise, E. M., Burd, H., Eng, D., Paddon, C. J., Newman, J. D., & Keesling, J. D. BMC Biotech. 8, 83 (2008) yielding pESC-Leu2d::CYP82X1/CPR and pESC-Leu2d::CYP82X2/CPR. The protease-deficient yeast strain YPL 154C:Pep4 was transformed with pESC-Leu2d::CYP82X1/CPR and pESC-Leu2d::CYP82X2/CPR. Yeast culture, microsome preparation, and immunoblot analysis were performed as described previously Dang, T.-T. T. & Facchini, P. J. J. Biol. Chem. 289, 2013-2026 (2014). For heterologous expression of CXE1, CXE2, and AT1, corresponding open reading frames were amplified using cDNA derived from total stem RNA of the Bea's Choice chemotype and cloned in-frame an N-terminal His-tag sequence in the Escherichia coli expression vector pRSETA (Invitrogen, Carlsbad, Calif.). CXE1 and CXE2 were individually inserted into the SacI and HindIII restriction sties, whereas AT1 was inserted into the KpnI and HindIII sites, of pRSETA using a primer 5′-[…]-3′ (SEQ ID NO: 609) and reverse primer 5′-[…]-3′ (SEQ ID NO: 610). […] Microsomal fractions containing recombinant CYP82X1 or CYP82X2 were detected using a-FLAG antibodies, whereas recombinant CPR was detected using α-c-Myc antibodies (FIG. 12 A). […]

CYP82X2 = target: T2, CYP82X2 (UniProt D5J9U8+I3PLR0); assay: In vitro enzyme assay with yeast microsomal fractions containing CYP82X2 (CPR/82X2); format: biochemical, Papaver somniferum; details: yeast microsomes (CPR/82X2), extracted ion chromatograms, FIG. 13
T2 construct: the full-length coding regions of CYP82X1 and CYP82X2 were inserted into the NotI and SpeI restriction sites; FLAG; made in house; host or cells: Saccharomyces cerevisiae YPL 154C:Pep4, microsomal fraction
T2 sequence (D5J9U8+I3PLR0 with tags, fused parts or gaps): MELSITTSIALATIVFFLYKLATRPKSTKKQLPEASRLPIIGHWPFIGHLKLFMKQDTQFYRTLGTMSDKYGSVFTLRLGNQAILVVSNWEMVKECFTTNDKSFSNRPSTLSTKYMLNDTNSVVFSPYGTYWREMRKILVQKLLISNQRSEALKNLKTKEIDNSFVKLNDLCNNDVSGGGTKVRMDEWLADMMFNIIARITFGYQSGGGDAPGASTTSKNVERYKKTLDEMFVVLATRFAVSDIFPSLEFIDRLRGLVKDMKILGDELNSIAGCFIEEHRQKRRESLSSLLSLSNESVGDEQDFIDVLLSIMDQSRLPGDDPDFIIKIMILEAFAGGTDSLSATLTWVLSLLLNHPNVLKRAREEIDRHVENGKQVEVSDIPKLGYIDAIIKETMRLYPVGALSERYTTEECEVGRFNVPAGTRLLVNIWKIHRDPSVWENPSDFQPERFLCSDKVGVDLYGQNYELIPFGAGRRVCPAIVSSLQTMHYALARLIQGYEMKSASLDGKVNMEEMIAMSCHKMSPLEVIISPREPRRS
Excerpt: as §1

CYP82Y1 = CYP82Y1 (Papaver somniferum, UniProt I3PLR1, R101S); details: yeast microsomes, 500 μM NADPH, pH 7.5, 30° C.
NOS = target: T3, NOS (Papaver somniferum, UniProt I3PLR3); format: biochemical, opium poppy (Papaver somniferum); details: for Km: cofactor of NOS for the conversion of narcotine hemiacetal to noscapine; for acceptance as substrate / conversion by NOS: recombinant NOS, product detection by LC-MS/MS
T3 construct: His-tag (pRSETA leader) (N); made in house; host or cells: Escherichia coli Rosetta (DE3) pLysS
T3 sequence (I3PLR3 1-348): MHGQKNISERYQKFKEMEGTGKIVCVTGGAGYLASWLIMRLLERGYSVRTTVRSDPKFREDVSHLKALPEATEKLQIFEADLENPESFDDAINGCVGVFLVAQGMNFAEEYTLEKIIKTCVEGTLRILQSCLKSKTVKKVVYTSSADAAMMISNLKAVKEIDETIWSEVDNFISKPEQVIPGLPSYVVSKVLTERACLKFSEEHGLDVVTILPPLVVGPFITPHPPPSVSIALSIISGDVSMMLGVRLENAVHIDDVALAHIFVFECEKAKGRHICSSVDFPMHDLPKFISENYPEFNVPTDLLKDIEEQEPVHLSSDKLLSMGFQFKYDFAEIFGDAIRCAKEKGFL
Excerpt: The full-length cDNA sequence of CL1327Contig1 (see: Example 2) was cloned into vector pRSETA in-frame with an N-terminal His-tag and expressed in E. coli as follows. The NOS coding region was amplified from opium poppy stem cDNA using the following primer set: 5′-[…]-3′ (SEQ ID NO: 601) and 5′-[…]-3′ (SEQ ID NO: 602). The NOS cDNA was cloned into the expression vector pRSETA (Invitrogen) at the SacI and KpnI restriction sites in frame with an N-terminal His-tag sequence. The expression construct was transformed into Escherichia coli strain Rosetta (DE3) pLysS (EMD Chemicals, Darmstadt, Germany). Expression of the recombinant gene was induced overnight with 1 mM isopropyl β-D-thiogalactoside (IPTG) at room temperature. Cells were harvested by centrifugation and sonicated in a buffer containing 50 mM sodium phosphate, pH 7.0, 300 mM NaCl, and 10 mM β-mercaptoethanol. After centrifugation at 20,000 g for 10 min, the supernatant was loaded onto Talon cobalt affinity resin (Clontech, Mountain View, Calif.). Purification was performed according to the manufacturer's instruction. The purified, recombinant protein was desalted using an Amicon centrifugal filter −30K (Millipore, Billerica, Mass.) and stored in a buffer containing 50 mM Tris-HCl, pH 8.0, 1 mM EDTA, 1 mM β-mercaptoethanol, and 10% (v/v) glycerol. Protein concentration was determined by the Bradford assay (Bio-Rad, Hercules, Calif.) using bovine serum albumin as the standard.
The purified recombinant NOS enzyme (see: Example 4) was assayed using either narcotine hemiacetal as the substrate (in the presence of either NAD^+ or NADP^+ as cofactor) for dehydrogenase activity, or with noscapine as the substrate (in the presence of NADH or NADPH as the cofactor) for reductase activity. LC-MS/MS was used to identify and quantify product formation (FIG. 7). […] LC-MS/MS and CID spec
In addition to narcotine hemiacetal and noscapine, NOS was also assayed with several other BIAs that could potentially serve as substrates for dehydrogenase/reductase reactions.

Chain of CYP82Y1 (I3PLR1 whole entry R101S): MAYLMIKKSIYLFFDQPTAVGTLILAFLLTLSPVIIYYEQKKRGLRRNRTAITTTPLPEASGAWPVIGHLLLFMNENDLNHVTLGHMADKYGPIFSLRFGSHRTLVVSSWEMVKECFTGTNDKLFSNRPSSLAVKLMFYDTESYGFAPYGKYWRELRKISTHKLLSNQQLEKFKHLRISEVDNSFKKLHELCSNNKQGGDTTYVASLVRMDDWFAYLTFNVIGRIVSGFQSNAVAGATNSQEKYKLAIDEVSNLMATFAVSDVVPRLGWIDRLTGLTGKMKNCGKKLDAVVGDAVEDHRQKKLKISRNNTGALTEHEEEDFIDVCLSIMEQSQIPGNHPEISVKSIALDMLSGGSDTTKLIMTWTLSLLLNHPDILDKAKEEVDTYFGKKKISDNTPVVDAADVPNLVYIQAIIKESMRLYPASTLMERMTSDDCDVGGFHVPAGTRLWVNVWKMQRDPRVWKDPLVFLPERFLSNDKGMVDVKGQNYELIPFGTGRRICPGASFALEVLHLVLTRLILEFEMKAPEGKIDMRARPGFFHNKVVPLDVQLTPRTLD

COc1ccc2c(c1OC)C[N+]1(C)CCc3cc4c(c(O)c3C1C2OC(C)=O)OCO4 [(S)-1-hydroxy-13-O-acetyl-N-methylcanadine]
conversion as substrate by CYP82X1 (CYP82X1): converting (S)-1-hydroxy-13-O-acetyl-N-methylcanadine (m/z 428) to (S)-1,8-dihydroxy-13-O-acetyl-N-methylcanadine
conversion as substrate by CYP82X2 (CYP82X2): showed no activity

COc1ccc2c(c1OC)C[N+]1(C)CCc3cc4c(c(O)c3C1C2)OCO4 [(S)-1-hydroxy-N-methylcanadine]
conversion as substrate by CYP82X1 (CYP82X1): 4-O-demethylmacrantaldehyde
conversion as substrate by CYP82X2 (CYP82X2): yielding (S)-1,13-dihydroxy-N-methylcanadine

COc1ccc2c(c1OC)C[N+]1(C)CCc3cc4c(cc3C1C2)OCO4 [(S)—N-methylcanadine]
conversion as substrate by CYP82Y1 (CYP82Y1): yielding 1-hydroxy-N-methylcanadine

C[N@@+]12CCc3cc4c(cc3[C@@H]1Cc1ccc3c(c1C2)OCO3)OCO4 [N-methylstylopine, reference compound]
conversion as substrate by CYP82Y1 (CYP82Y1): give rise to 1-hydroxy-N-methylstylopine

NC(=O)c1ccc[n+]([C@@H]2O[C@H](COP(=O)([O-])OP(=O)(O)OC[C@H]3O[C@@H](n4cnc5c(N)ncnc54)[C@H](OP(=O)(O)O)[C@@H]3O)[C@@H](O)[C@H]2O)c1 [NADP^+]
Km (NOS): 1250 µM

NC(=O)c1ccc[n+]([C@@H]2O[C@H](COP(=O)([O-])OP(=O)(O)OC[C@H]3O[C@@H](n4cnc5c(N)ncnc54)[C@H](O)[C@@H]3O)[C@@H](O)[C@H]2O)c1 [NAD^+]
Km (NOS): 33.1 µM

COc1ccc2c3c1O[C@H]1[C@@H](O)C=C[C@H]4[C@@H](C2)N(C)CC[C@@]341 [codeine]
acceptance as substrate / conversion by NOS (NOS): none were accepted by NOS

COc1ccc2c3c1O[C@H]1C(=O)C=C[C@H]4[C@@H](C2)N(C)CC[C@]314 [codeinone]
acceptance as substrate / conversion by NOS (NOS): none were accepted by NOS

COc1ccc2c(c1OC)C(O)OC2C1c2c(cc3c(c2OC)OCO3)CCN1C (stereo not drawn) [narcotine hemiacetal]
affinity of NOS for the alkaloid substrate and corresponding catalytic efficiency (NOS; in the presence of NAD^+ compared with NADP^+ as the cofactor): significantly higher
acceptance as substrate / conversion by NOS (NOS): able to oxidize the hydroxyl group on the hemiacetal ring

COc1ccc2c(c1OC)C(O)O[C@@H]2[C@H]1c2c(cc3c(c2O)OCO3)CCN1C (stereo partly drawn) [narcotoline hemiacetal]
acceptance as substrate / conversion by NOS (NOS): yielded a new compound consistent with narcotoline

COC1=C[C@]23CCN(C)[C@H](Cc4ccc(OC)c(O)c42)C3=CC1=O [salutaridine]
acceptance as substrate / conversion by NOS (NOS): none were accepted by NOS

c1cc2c(c3c1C[C@H]1c4cc5c(cc4CCN1C3)OCO5)OCO2 [stylopine]
acceptance as substrate / conversion by NOS (NOS): none were accepted by NOS

— patent publication US10793885B2, “Compositions and methods for making noscapine and synthesis intermediates thereof” (priority 2013, dated 2020)
